Measured values from patent US6391304B1, “Peptides derived from the ENV gene of the feline immunodeficiency virus and their applications” (Centre National de la Recherche Scientifique, priority 1997, dated 2002).
Values joined by “and” are separate entries in the source; they are usually repeats but may differ in a detail not shown here. Equal values may be shown once. Ends that are not written are not given here.

What was measured:
[1] = system: immobilized peptide (SU2, SU5, TM2 or TM3-19); test: ELISA anti-peptide titre during the immunization of cats; assay type: in vivo; settings: individual cats immunized with KLH-coupled peptide; absorbance at 405 nm greater than 0.1
Procedure: Groups of four cats 4½ months old are immunized subcutaneously with 120 μg of FIV peptide (approximately 250 μg of peptide coupled to KLH (keyhole limpet haemocyanin)), emulsified in complete Freund's adjuvant.
Four repeat immunizations are administered subcutaneously in an incomplete Freund's adjuvant, generally at intervals of 2-3 weeks, although the interval between the last 2 […] was 7 weeks.
(§1) The production on of antibodies is evaluated before the test by means of an ELISA using an immobilized peptide (SU2, SU5, TM2 or TM3-19) and immunoprecipitation. After the test, the seroconversion is monitored by an ELISA using immobilized envelope peptides and a recombinant FTV capsid protein.
(§2) The ELISA with the immobilized envelope peptides corresponding to the immunogenic domains SU2 and TM2 and with the immobilized recombinant p25 protein (FIV capsid protein) is carried out as described in Avraméas A. et al. (Res. Virol., 1993, 144, 209-218).
(§3) Microplates (Immunolon II, Dynatech) are coated with 0.5 μg/well for the peptides and with 0.1 μg/well for the p25 protein.
(§4) The tests are carried out in duplicate and the results are expressed as average values.
The anti-peptide titres before the test are expressed as the logarithm of the inverse of the last dilution of serum which gives an absorbance (at 405 nm) of greater than 0.1.

FIV Wo = test: Test of reduction of viral infectivity in mitogen-activated feline PBM cells; assay type: cell-based; settings: PBMC cells activated with a mitogen; serum dilution 1/5
Procedure: For the test of reduction of the viral infectivity, serial dilutions ( 1/50, 1/100, 1/200 and 1/400) of a stock suspension of Wo isolate and a single dilution of serum (⅕) are prepared in a complete RPMI medium containing 50 μM of 2-ME and 10 mM of HEPES.
The feline serum is mixed with an equal volume of the serial dilutions of virus and incubated in a final volume of 100 μl for one hour at 37° C.
The concentration of PBM cells activated with a mitogen is adjusted to 4×10^6/ ml in a complete RPMI medium comprising 2-ME, HEPES and 200 U/ml of recombinant human IL-2. 0.1 ml of cell suspension (4×10^5 cells) is added to the tubes.
After incubation overnight, the viral inoculum is recovered by washing the cells twice with 0.5 ml of complete RPMI medium.
The cells are then resuspended fin 0.2 ml of feline serum diluted in a complete RDMI medium comprising 2-ME, HEPES and 100 U/ml of IL-2, and then transferred into the wells of 96-well microtitration plates.
Half of the medium is replaced four days after the infection.
10 μl aliquots are recovered 7 days after the infection, for an analysis of the reverse transcriptase activity.
Given that the Wo strain was not adapted by passage on CrFK cells, the influence of the antibodies was studied on the infection in feline PBMC cells.

TM2 envelope peptide = test: Seroconversion ELISA after the virulence test, TM2 peptide; assay type: in vivo, cats; settings: for Binding of the sera to TM2, 3 weeks after the virulence test / Binding of the sera to TM2, 4 weeks after the virulence test / Binding of the sera to TM2, 5 weeks after the virulence test: ELISA, seral dilution 1/25, individual cats; for response against the TM2 peptide: at 4 weeks after the test
Procedure: The cats are subjected to a virulence test, one week after the final immunization, by means of an intraperitoneal inoculation of 10 CID50 of FIV Wo isolate, one CID50 corresponding to the dose capable of infecting 50% of the cats.
as §1, §2, §3, §4
After the test, the seroconversion against the envelope peptides and the p25 protein is evaluated at serum dilutions of 1/25 and 1/100, respectively.
The absorbance values (at 405 nm) are corrected by subtraction of the absorbance values obtained by binding with an immobilized control peptide.
The tests are normalized with reference to the binding of a mixture of serum from cats infected with FIV with a peptide representing the immunodominant domain of the FIV transmembrane glycoprotein (TM2) (Avraméas A. et al., Res. Virol., 1993, 144, 209-218).

FIV Petaluma strain = test: Neutralization of infection of CrFK cells by sera of immunized cats; assay type: cell-based; settings: for neutralizing antibodies in sera of immunized cats: CrFK cell line
Procedure: The detection of antibodies neutralizing the infection of the CrFKs with the FIV Petaluma strain is carried out as described previously (Richardson J. et al., J. Gen. Virol., 1996, 77, 759-771).
To evaluate the function of the antibodies, the feline sera directed against the SU2 peptide are tested for their neutralizing value with respect to the infection of CrFK cells with the FIV Petaluma strain.

Row | Substance | Anti-peptide titre, 1st injection [1] | Anti-peptide titre, 2nd injection [1] | Anti-peptide titre, Day of the test [1] | effect of sera on infection with FIV Wo (reduction of infectivity) (FIV Wo) | Binding of the sera to TM2, 3 weeks after the virulence test (TM2 envelope peptide) | Binding of the sera to TM2, 4 weeks after the virulence test (TM2 envelope peptide) | Binding of the sera to TM2, 5 weeks after the virulence test (TM2 envelope peptide) | response against the TM2 peptide (TM2 envelope peptide) | neutralizing antibodies in sera of immunized cats (FIV Petaluma strain) | final dilution of serum which reduces the infection by at least 50% (FIV Petaluma strain; cat 327, CrFK cells)
1 | KKGLQQLQEWEDWVGWIGN [TM3-19, 19-amino-acid fragment of the TM3 domain of the FIV Wo Env transmembrane glycoprotein (759-777)] | 4.71 logarithm of the inverse of the last dilution of serum and 5.01 logarithm of the inverse of the last dilution of serum and 5.31 logarithm of the inverse of the last dilution of serum | 4.71 logarithm of the inverse of the last dilution of serum and 5.31 logarithm of the inverse of the last dilution of serum and 5.01 logarithm of the inverse of the last dilution of serum and 3.20 logarithm of the inverse of the last dilution of serum | 4.40 logarithm of the inverse of the last dilution of serum (3×) and 4.71 logarithm of the inverse of the last dilution of serum | do not modify the infection | 0 optical density (3×) and 1.2 optical density | 0.1 optical density and 2.4 optical density and 0 optical density and 0.5 optical density | 1.9 optical density and 2.5 optical density and 0 optical density and 2.3 optical density | all but one (347) of the cats immunized with the TM3-19 peptide show a weak or undetectable response | do not neutralize | –
2 | SU2: peptide of the SU2 domain of the FIV surface envelope glycoprotein, SEQ ID NO: 2, used as immunogen (RAISSWKQRNRWEWRPD) | 4.40 logarithm of the inverse of the last dilution of serum and 5.31 logarithm of the inverse of the last dilution of serum and 4.71 logarithm of the inverse of the last dilution of serum and 5.01 logarithm of the inverse of the last dilution of serum | 4.71 logarithm of the inverse of the last dilution of serum and 5.01 logarithm of the inverse of the last dilution of serum (2×) and 5.31 logarithm of the inverse of the last dilution of serum | 5.31 logarithm of the inverse of the last dilution of serum and 4.71 logarithm of the inverse of the last dilution of serum and 5.61 logarithm of the inverse of the last dilution of serum and 5.01 logarithm of the inverse of the last dilution of serum | do not modify the infection | 0 optical density | 1.3 optical density and 2.2 optical density and 2.1 optical density and 1.4 optical density | 2.1 optical density (2×) and 2.3 optical density and 2.5 optical density | developed a large response | Only one cat (327) immunized with the SU2 peptide develops neutralizing antibodies | 1/160
